These results are taken from patent US9096524B2, “Anthelmintic agents and their use” (Intervet International B.V., priority 2009, dated 2015).

Experiment [1] deals with Haemonchus contortus larval stage 4, isolate with a resistance to benzimidazoles and ivermectin and anthelmintic-sensitive isolate. As to the kind of experiment: Resistance-breaking activity against Haemonchus contortus L4 in vitro, resistant isolate compared with sensitive isolate. It counts as cell-based. To be noted: isolate resistant to benzimidazoles and ivermectin vs sensitive isolate. As for the experimental part: Anthelmintic resistance-breaking effects of compounds of this invention were tested in vitro using larval stage 4 (“L4”) of the parasitic nematode species Haemonchus contortus (Barber's pole worm in ruminants). One isolate of Haemonchus contortus with a resistance to benzimidazoles and ivermectin was tested in comparison to the anthelmintic-sensitive isolate of Haemonchus contortus. When conducting these experiments, various concentrations of the compounds were incubated in 96-well microtiter plates. Parasites were then distributed at 20 larvae per well. The anthelmintic effects were classified by microscopic examination. The microscopic examination included assessing mortality, damage, motility, progression of development, and neutral red uptake by the larvae in comparison to a DMSO-control and standard anthelmintics. The anthelmintic effects were defined by the minimum effective concentration (“MEC”).

The next experiment concerns Haemonchus contortus. As to the kind of experiment: Efficacy against Haemonchus contortus in jirds. The class given is in vivo, jirds (Meriones unguiculatus). The note with it: 72 h, read-out: % Reduction in H. As for the experimental part:
Anthelmintic effects of compounds of this invention were tested in vivo using Haemonchus contuortus in jirds (Meriones unguiculatus). The jirds were orally infected with approximately 750-3,000 third-stage larvae of Haemonchus contortus. Ten days after infection, the jirds in the treatment groups were treated once orally or subcutaneously at a dose of 2, 10, and/or 50 mg per kg bodyweight. Three days after treatment, the jirds were necropsied, and the larvae burden in the stomach is determined. The efficacy is defined as the reduction of the mean larvae count in the jirds of the treatment groups in comparison to the infected jirds in the untreated negative control group.

Experiment [2] concerns A. galli (intestinal roundworm of chicken) larval stage 3; O. dentatum (nodular worm of swine) larval stages 3 and 4. As to the kind of experiment: Activity against Ascaridia galli and Oesophagostomum dentatum larvae in vitro (minimum effective concentration). It counts as cell-based.
[3] abbreviates: read-out: MEC (minimum effective concentration) against one or more of the tested nematodes, in vitro, one or more of A. galli L3, O. dentatum L3, L4, threshold 1 μM.
The mark [4] stands for this setting: read-out: MEC (minimum effective concentration) against one or more of the tested nematodes, in vitro, one or more of A. galli L3, O. dentatum L3, L4, threshold 7 μM.
Setting [5] is: read-out: MEC (minimum effective concentration) against two or more of the tested nematodes, in vitro, two or more of A. galli L3, O. dentatum L3, L4, threshold 1 μM.
Where [6] appears, read: in vitro, one or more of A. galli L3, O. dentatum L3, L4, threshold 1 μM, read-out: MEC (minimum effective concentration) against one or more of the tested nematodes.
Setting [7] is: in vitro, one or more of A. galli L3, O. dentatum L3, L4, threshold 7 μM, read-out: MEC (minimum effective concentration) against one or more of the tested nematodes.
The mark [8] stands for this setting: in vitro, two or more of A. galli L3, O. dentatum L3, L4, threshold 1 μM, read-out: MEC (minimum effective concentration) against two or more of the tested nematodes.
[9] abbreviates: jirds, 10 mg/kg, oral, single treatment, larvae burden in stomach 3 days after treatment.
Setting [10] is: sc, jirds, 10 mg/kg, subcutaneous, single treatment, larvae burden in stomach 3 days after treatment.
Where [11] appears, read: jirds, 50 mg/kg, oral, single treatment, larvae burden in stomach 3 days after treatment.
Setting [12] is: sc, jirds, 50 mg/kg, subcutaneous, single treatment, larvae burden in stomach 3 days after treatment.

Read-outs that look alike come from different tables or passages of the source. Where only a bound is given, the exact number is not on record here.

Turning to `O=C(CCN1CCC(c2ccc(Oc3ccccc3)cc2)CC1)N1CCC(Oc2ccc([N+](=O)[O-])c(C(F)(F)F)c2)CC1` [Example 45, 1-[4-(4-nitro-3-trifluoromethyl-phenoxy)-piperidin-1-yl]-3-[4-(4-phenoxy-phenyl)-piperidin-1-yl]-propan-1-one], in experiment [1], the “activity (MEC) against the resistant versus the sensitive isolate of Haemonchus contortus” value is “the same activity against the resistant and the sensitive isolate”. In addition, the inhibition in vivo at 50 mg/kg in the experiment with Haemonchus contortus (po) and in the experiment with Haemonchus contortus (sc) was 94% each time.
Turning to `O=C(CCCN1CCN(c2ccc(C(F)(F)F)cc2)CC1)N1CCC(Nc2ccc(SC(F)(F)F)cc2)CC1` [Example 48, 4-[4-(4-trifluoromethyl-phenyl)-piperazin-1-yl]-1-[4-(4-trifluoromethylsulfanyl-phenylamino)-piperidin-1-yl]-butan-1-one], the minimal effective concentration was less than 1 µM in experiment [2] (setting [3]), less than 7 µM in experiment [2] (setting [4]) and less than 1 µM in experiment [2] (setting [5]). In addition, the “activity (MEC) against the resistant versus the sensitive isolate of Haemonchus contortus” value in experiment [1] was “the same activity against the resistant and the sensitive isolate”. For the same compound, the inhibition in vivo at 10 mg/kg stood at 99% with Haemonchus contortus (po) and 92% in the experiment with Haemonchus contortus (sc).
Consider `O=C(CCCN1CCN(c2ccc(C(F)(F)F)cc2)CC1)NC1CCN(c2ccc([N+](=O)[O-])c(C(F)(F)F)c2)CC1` [Example 73, N-[1-(4-nitro-3-trifluoromethyl-phenyl)-piperidin-4-yl]-4-[4-(4-trifluoromethyl-phenyl)-piperazin-1-yl]-butyramide], for which the minimal effective concentration in experiment [2] (setting [6]) was less than 1 µM; in experiment [2] (setting [7]), less than 7 µM; in experiment [2] (setting [8]) it was less than 1 µM. For the same compound, the inhibition in vivo at 10 mg/kg with Haemonchus contortus (setting [9]) stood at 54%; with Haemonchus contortus (setting [10]), 63%.
Consider `O=C(CCCN1CCN(c2ccc(C(F)(F)F)cc2)CC1)NC1CCN(c2ccc(SC(F)(F)F)cc2)CC1` [Example 76, 4-[4-(4-trifluoromethyl-phenyl)-piperazin-1-yl]-N-[1-(4-trifluoromethylsulfanyl-phenyl)-piperidin-4-yl]-butyramide], for which the minimal effective concentration is less than 1 µM in experiment [2] (setting [6]), less than 7 µM in experiment [2] (setting [7]) and less than 1 µM in experiment [2] (setting [8]). For the same compound, the inhibition in vivo at 10 mg/kg in the experiment with Haemonchus contortus (setting [9]) turned out to be 67%; in the experiment on Haemonchus contortus (setting [10]), 13%.
In the case of `O=C(CCN1CCN(c2nnc(C(F)(F)F)s2)CC1)N1CCC(Nc2ccc([N+](=O)[O-])c(C(F)(F)F)c2)CC1` [Example 124, 1-[4-(4-nitro-3-trifluoromethyl-phenylamino)-piperidin-1-yl]-3-[4-(5-trifluoromethyl-1,3,4-thiadiazol-2-yl)-piperazin-1-yl]-propan-1-one], the values for the minimal effective concentration in experiment [2] (setting [3]), in experiment [2] (setting [4]) and in experiment [2] (setting [5]) were less than 1 µM, less than 7 µM and less than 1 µM, respectively. Also, the results for the inhibition in vivo at 10 mg/kg with Haemonchus contortus (po) and in the experiment with Haemonchus contortus (sc) were 47% and 75%, respectively.
In the case of `O=C(CCN1CCN(c2ccc(C(F)(F)F)nc2)CC1)N1CCC(Nc2ccc([N+](=O)[O-])c(C(F)(F)F)c2)CC1` [Example 126, 1-[4-(4-nitro-3-trifluoromethyl-phenylamino)-piperidin-1-yl]-3-[4-(6-trifluoromethyl-pyridin-3-yl)-piperazin-1-yl]-propan-1-one], the minimal effective concentration was less than 1 µM in experiment [2] (setting [3]), less than 7 µM in experiment [2] (setting [4]) and less than 1 µM in experiment [2] (setting [5]). Moreover, the inhibition in vivo at 10 mg/kg is 64% in the experiment on Haemonchus contortus (po) and 86% in the experiment with Haemonchus contortus (sc).
In the case of `O=C(CCCC1CCN(c2ccc(C(F)(F)F)cc2)CC1)N1CCC(Nc2ccc([N+](=O)[O-])c(C(F)(F)F)c2)CC1` [Example 134, 1-[4-(4-nitro-3-trifluoromethyl-phenylamino)-piperidin-1-yl]-4-[1-(4-trifluoromethyl-phenyl)-piperidin-4-yl]-butan-1-one], the minimal effective concentration in experiment [2] (setting [3]) is less than 1 µM; in experiment [2] (setting [4]) it was less than 7 µM; in experiment [2] (setting [5]), less than 1 µM. For the same compound, the inhibition in vivo at 10 mg/kg with Haemonchus contortus (po) and in the experiment on Haemonchus contortus (sc) was 99% throughout.
`O=C(CCCN1CCN(c2ccc(C(F)(F)F)cn2)CC1)N1CCC(Nc2ccc([N+](=O)[O-])c(C(F)(F)F)c2)CC1` [Example 151, 1-[4-(4-nitro-3-trifluoromethyl-phenylamino)-piperidin-1-yl]-4-[4-(5-trifluoromethyl-pyridin-2-yl)-piperazin-1-yl]-butan-1-one]: the minimal effective concentration in experiment [2] (setting [3]) was less than 1 µM; in experiment [2] (setting [4]) it was less than 7 µM; in experiment [2] (setting [5]), less than 1 µM. Besides, the inhibition in vivo at 10 mg/kg in the experiment on Haemonchus contortus (po) worked out at 88%; in the experiment with Haemonchus contortus (sc) it was 84%.
Turning to `O=C(CCN1CCN(c2ccc(Cl)cc2)CC1)N1CCC(Nc2ccc(S(=O)(=O)c3ccc(F)cc3)cc2)CC1` [Example 295], the minimal effective concentration in experiment [2] (setting [8]) was less than 1 µM. Besides, the inhibition in vivo at 50 mg/kg with Haemonchus contortus (setting [11]) was found to be 97%; in the experiment with Haemonchus contortus (setting [12]) it was 0%.
As for `CC(C)(C)c1ccc(N2CCN(CCCC(=O)N3CCC(Nc4ccc(C#N)c(Cl)c4)CC3)CC2)cc1` [Example 322], in experiment [2] (setting [5]), the minimal effective concentration was less than 1 µM. For the same compound, the inhibition in vivo at 50 mg/kg with Haemonchus contortus (po) was determined as 67%; in the experiment with Haemonchus contortus (sc), 73%.
Take `CC(C)(C)c1ccc(N2CCN(CCC(=O)N3CCC(Nc4ccc(C#N)c(C(F)(F)F)c4)CC3)CC2)cc1` [Example 324]: in experiment [2] (setting [5]), the minimal effective concentration was less than 1 µM. Moreover, the figures for the inhibition in vivo at 50 mg/kg in the experiment with Haemonchus contortus (po) and in the experiment with Haemonchus contortus (sc) were 89% and 90%, respectively.
Turning to `CCOC(=O)c1ccc(NC2CCN(C(=O)CCN3CCN(c4ccc(C(C)(C)C)cc4)CC3)CC2)cc1` [Example 334], the minimal effective concentration in experiment [2] (setting [6]) and in experiment [2] (setting [8]) was less than 1 µM throughout. The inhibition in vivo at 50 mg/kg in the experiment with Haemonchus contortus (setting [11]) amounted to 78%; in the experiment with Haemonchus contortus (setting [12]) it was 82%.
As to `CN(C)S(=O)(=O)c1ccc(NC2CCN(C(=O)CCN3CCN(c4ccc(C(C)(C)C)cc4)CC3)CC2)cc1C(F)(F)F` [Example 345], in experiment [2] (setting [8]), the minimal effective concentration was less than 1 µM. Besides, the inhibition in vivo at 50 mg/kg in the experiment with Haemonchus contortus (setting [11]) stood at 76%; with Haemonchus contortus (setting [12]) it was 61%.
In the case of `CC(C)(C)c1ccc(C2CCN(CCC(=O)N3CCC(Nc4ccc([N+](=O)[O-])c(C(F)(F)F)c4)CC3)CC2)cc1` [Example 367], the minimal effective concentration in experiment [2] (setting [8]) is less than 1 µM. Further, the inhibition in vivo at 50 mg/kg with Haemonchus contortus (setting [11]) was 73%; in the experiment on Haemonchus contortus (setting [12]), 45%.
With `COc1cc(NC2CCN(C(=O)CCN3CCN(c4ccc(Cl)cc4)CC3)CC2)ccc1[N+](=O)[O-]` [Example 385], the minimal effective concentration in experiment [2] (setting [6]) is less than 1 µM; in experiment [2] (setting [7]), less than 7 µM; in experiment [2] (setting [8]), less than 1 µM. For the same compound, the figures for the inhibition in vivo at 50 mg/kg in the experiment on Haemonchus contortus (setting [11]) and in the experiment on Haemonchus contortus (setting [12]) were 0% and 83%, respectively.
In the case of `Cn1nnc(-c2ccc(NC3CCN(C(=O)CCN4CCN(c5ccc(C(C)(C)C)cc5)CC4)CC3)cc2)n1` [Example 444], the minimal effective concentration was less than 1 µM in experiment [2] (setting [6]), less than 7 µM in experiment [2] (setting [7]) and less than 1 µM in experiment [2] (setting [8]). Further, the inhibition in vivo at 50 mg/kg with Haemonchus contortus (setting [11]) is 78%; in the experiment with Haemonchus contortus (setting [12]), 52%.
With `CCCc1ccc(C2CCN(CCC(=O)N3CCC(Oc4ccc([N+](=O)[O-])c(OCC)c4)CC3)CC2)cc1` [Example 579], in experiment [2] (setting [5]), the minimal effective concentration was less than 1 µM. Besides, the inhibition in vivo at 50 mg/kg in the experiment on Haemonchus contortus (po) and in the experiment with Haemonchus contortus (sc) was 96% in each case.
